Laboratory results reported in ChEMBL document CHEMBL1143675, “Triterpenoids from Schisandra rubriflora” (J Nat Prod, 2007).
Values after ≈ are worked out from the molar mass of the structure shown.

How the values were obtained:
[1] = test system: Human immunodeficiency virus 1; assay: Antiviral activity against HIV1 3B in C8166 cells; assay type: functional, organism-based; settings: Human immunodeficiency virus 1, 3B
[2] = Cytotoxicity against C8166 cells after 72 hrs by MTT method; assay type: cell-based; settings: human

Compound	EC50 [1] [µg/mL]	CC50 at 72 h [2] [µg/mL]
COC(=O)C[C@H]1OC(C)(C)[C@@H]2C[C@H]3O[C@@]12C[C@]12CC[C@]4(C)C(=O)[C@@H](C)[C@@H]5[C@H]6OC(=O)[C@@H](C)[C@H]6O[C@@](O1)(C(=O)[C@H]32)[C@@H]54 [RUBRIFLORIN A]	10 (≈ 17.9 µM)	89.1 (≈ 159 µM)
COC(=O)C[C@H]1OC(C)(C)C2=C1C[C@]13CC[C@]4(C)C(=O)[C@@H](C)[C@@H]5[C@H]6OC(=O)[C@@H](C)[C@H]6O[C@@](O1)(C(=O)C3=CC2=O)[C@@H]54 [RUBRIFLORIN B]	16.2 (≈ 29.2 µM)	100 (≈ 181 µM)
CCOC(=O)C[C@H]1OC(C)(C)C2=C1C[C@]13CC[C@]4(C)C(=O)[C@@H](C)[C@@H]5[C@H]6OC(=O)[C@@H](C)[C@H]6O[C@@](O1)(C(=O)C3=CC2=O)[C@@H]54 [RUBRIFLORIN C]	81.3 (≈ 143 µM)	> 200
Cc1cn([C@H]2C[C@H](N=[N+]=[N-])[C@@H](CO)O2)c(=O)[nH]c1=O [ZIDOVUDINE]	0.0043 (≈ 0.0161 µM)	> 200
